Results published in US20100146643A1, “RAPID IN VIVO MODEL FOR ANGIOGENESIS” (ANTICANCER, INC, priority 2006, published 2010).

What was measured:
[1] = test system: MIA PaCa-2 human pancreatic cancer; settings: orthotopically transplanted MIA PaCa-2-RFP, ND-GFP transgenic nude mice; cited from earlier work
[2] = test system: XPA-1-RFP human pancreatic cancer; settings: liver metastasis of XPA-1-RFP, ND-GFP transgenic nude mice; cited from earlier work
[3] = test system: nascent blood vessels in bFGF-containing Gelfoam; assay: Gelfoam subcutaneous implant angiogenesis model in ND-GFP transgenic nude mice; type: in vivo, mouse
Protocol: Transgenic C57/B6 nude mice that produce green fluorescent protein (GFP) in endothelial cells were used. These transgenic mice (6-8 weeks old) were anesthetized with tribromoethanol. Gelfoam® (Pharmacia & Upjohn company, Kalamazoo, Mich.) blocks (5×5 mm) were either treated with 300 ng basic fibroblast growth factor (bFGF) (Chemicon, Temecula, Calif.) in 75 μl RPMI 1640 medium (Cellgro, Herndon, Va.) or not treated. The Gelfoam® blocks were transplanted into the subcutis on both flanks of the transgenic mice, a treated block on one flank and an untreated block on the other. One group of mice was given daily ip injections of 5 μg/g of doxorubicin and another group was given 0.9% NaCl solution (vehicle control) at days 0, 1, and 2 after transplantation of Gelfoam®. Skin flaps were made at day 7 under anesthesia. Angiogenesis was quantified by measuring the length of fluorescent nascent blood vessels in the skin flap by in vivo fluorescence microscopy imaging.
A Leica fluorescence stereo microscope model LZ12 equipped with a mercury lamp and a 50-W power supply was used. Selective excitation of GFP was produced through a D425/60 band-pass filter and a 470 DCXR dichroic mirror. Emitted fluorescence was collected through a long-pass filter (GG475; Chroma Technology, Brattleboro, Vt.) on a Hamamatsu C5810 3-chip cooled color charge-coupled device camera (Hamamatsu Photonics, Bridgewater, N.J.). Images were processed for contrast and brightness and analyzed with the use of IMAGE PRO PLUS 3.1 software (Media Cybernetics, Silver Spring, Md.). High-resolution images of 1024×724 pixels were captured directly on an IBM PC or continuously through video output on a high-resolution Sony VCR (model SLVR1000; Sony, Tokyo).
The experimental data are expressed as the mean ±SD. Statistical analysis was performed using the two-tailed Student's t test.

[4] = test system: B16F10-RFP murine melanoma; settings: ND-GFP mice transplanted with B16F10-RFP; cited from earlier work
[5] = Gelfoam containing 300 ng bFGF, mice given 0.9% NaCl, day 7

## Nc1ccn([C@@H]2O[C@H](CO)[C@@H](O)C2(F)F)c(=O)n1 [Gemcitabine]
[1]
  mean nascent blood vessel density in the tumor: significantly decreased
  tumor volume: decreased tumor volume
[2]
  mean nascent blood vessel density in the liver metastases: significantly decreased

## bFGF: basic fibroblast growth factor (Chemicon), growth factor loaded in Gelfoam to encourage angiogenesis
[3]; [5]
  mean nascent blood vessel length: ~6 mm/mm^2
  neovasculature formed in the bFGF-containing Gelfoam patch (FIG. 2a): a large complex of neovasculature is formed

## COc1cccc2c1C(=O)c1c(O)c3c(c(O)c1C2=O)C[C@@](O)(C(=O)CO)C[C@@H]3O[C@H]1C[C@H](N)[C@H](O)[C@H](C)O1 [doxorubicin]
[4]
  nascent tumor angiogenesis: inhibit nascent tumor angiogenesis
  tumor growth: inhibit
[3]; doxorubicin 5 μg/g ip at days 0, 1, 2, day 7, compared with untreated Gelfoam in NaCl-treated mice
  extent of angiogenesis (mean nascent blood vessel length, FIG. 4) in bFGF-treated Gelfoam: reduced below that of untreated Gelfoam® in the sodium chloride treated mice
[3]; doxorubicin 5 μg/g ip at days 0, 1, 2, skin flap at day 7, Gelfoam with 300 ng bFGF
  neovasculature in the bFGF-treated foam (FIG. 2c): greatly diminished neovasculature
[3]; doxorubicin 5 μg/g ip at days 0, 1, 2, skin flap at day 7, Gelfoam without bFGF
  angiogenesis in the foam not containing bFGF (FIG. 2d): no observable angiogenesis
